This passage reports IC50 results from BindingDB's records for doi:10.7270/Q2DN43N5 (Burnham Center For Chemical Genomics, 2013).

Structures can show the parent of a compound that is named as a salt.

By IC50 is commonly meant the concentration needed to halve the response being measured. A low value points to greater potency in that assay.

In this assay the target is T1, Tyrosine-protein phosphatase non-receptor type 22 (Homo sapiens, UniProt Q9Y2R2).
T1 sequence (Q9Y2R2 whole entry): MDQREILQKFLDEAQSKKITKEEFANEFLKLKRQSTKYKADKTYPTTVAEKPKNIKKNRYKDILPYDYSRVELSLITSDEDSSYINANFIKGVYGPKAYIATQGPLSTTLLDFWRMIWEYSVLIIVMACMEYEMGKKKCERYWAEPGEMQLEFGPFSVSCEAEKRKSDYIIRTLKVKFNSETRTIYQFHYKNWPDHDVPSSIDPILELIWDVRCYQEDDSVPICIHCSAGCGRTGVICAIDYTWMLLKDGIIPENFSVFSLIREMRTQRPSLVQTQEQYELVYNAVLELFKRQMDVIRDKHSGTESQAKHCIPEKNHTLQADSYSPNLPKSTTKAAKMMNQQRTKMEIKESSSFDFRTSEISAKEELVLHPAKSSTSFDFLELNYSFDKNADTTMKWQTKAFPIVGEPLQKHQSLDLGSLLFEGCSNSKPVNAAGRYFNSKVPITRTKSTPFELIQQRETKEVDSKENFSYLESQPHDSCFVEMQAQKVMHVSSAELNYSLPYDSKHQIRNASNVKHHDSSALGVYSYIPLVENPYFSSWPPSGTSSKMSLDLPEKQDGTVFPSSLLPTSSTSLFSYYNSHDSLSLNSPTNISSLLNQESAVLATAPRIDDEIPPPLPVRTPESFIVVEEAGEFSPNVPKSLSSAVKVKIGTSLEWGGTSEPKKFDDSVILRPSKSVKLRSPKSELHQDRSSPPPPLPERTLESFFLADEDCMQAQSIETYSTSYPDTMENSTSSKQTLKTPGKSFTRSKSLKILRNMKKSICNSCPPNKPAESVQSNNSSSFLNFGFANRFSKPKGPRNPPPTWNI

With `CCCCC(=O)Nc1ccc(C(=O)NNC(=O)c2ccc(C)c(Br)c2)cc1` [N-(4-{[2-(3-bromo-4-methylbenzoyl)hydrazino]carbonyl}phenyl)pentanamide], the half-inhibitory concentration (IC50) is > 80 µM.

For the molecule `c1ccc(-c2cc(N3CCCCC3)c3ccccc3n2)cc1` [2-phenyl-4-piperidin-1-ylquinoline], the concentration for half-maximal inhibition (IC50) was > 80 µM.

Turning to `O=C(CCCOc1ccc(Cl)cc1Cl)NNC(=O)c1ccc(NC(=O)c2ccccc2)cc1` [N-[4-[[4-[2,4-bis(chloranyl)phenoxy]butanoylamino]carbamoyl]phenyl]benzamide], the IC50 was > 80 µM.

In turn, `CCOc1cc(CN=Nc2nc(O)c(CC(=O)O)s2)ccc1OCc1ccc(Cl)cc1Cl` [2-[2-[(N''E)-N''-[4-(2,4-dichlorobenzyl)oxy-3-ethoxy-benzylidene]hydrazino]-4-keto-2-thiazolin-5-yl]acetic acid] yielded an IC50 of 22.9 µM.

Consider `Cc1nccc(O)c1Cc1c(Cl)cccc1Cl`, for which the IC50 was > 80 µM.

As to `Cc1ccc(-c2nc(NCCN3CCOCC3)c3ccccc3n2)cc1` [SMR000108805], the IC50 was > 80 µM.

Take `Cc1ccccc1Nc1cc(C)c2c(=O)cccc-2[nH]1`: the IC50 was > 80 µM.

For the molecule `CCN(c1ccccc1)S(=O)(=O)c1cc(C(=O)O)ccc1C` [3-[ethyl(phenyl)sulfamoyl]-4-methyl-benzoic acid], the IC50 is > 80 µM.

Regarding `CC(C)OCCCNc1nc(-c2ccccc2)nc2ccccc12` [2-phenyl-N-(3-propan-2-yloxypropyl)-4-quinazolinamine;hydrochloride], the 50% inhibitory concentration (IC50) is > 80 µM.

Regarding `c1ccc(-c2nc(NCc3cccnc3)c3ccccc3n2)cc1`, the IC50 was > 80 µM.

For `c1ccc(-c2nc(NCCCn3ccnc3)c3ccccc3n2)cc1` [MLS001007021], the IC50 was > 80 µM.

For `Fc1ccccc1-c1nc(NC2CCCC2)c2ccccc2n1` [N-cyclopentyl-2-(2-fluorophenyl)quinazolin-4-amine], the IC50 was > 80 µM.

As to `O=C(OCCNc1nc(-c2ccccc2)nc2ccccc12)c1cccnc1` [3-pyridinecarboxylic acid 2-[(2-phenyl-4-quinazolinyl)amino]ethyl ester], the IC50 is > 80 µM.

For the molecule `Clc1cccc(Cl)c1Cn1cnc(NCc2ccco2)c2ncnc1-2` [SMR000036870], the IC50 is > 80 µM.

Turning to `N=c1c(C(=O)NCc2ccc3c(c2)OCO3)cc2c(=O)n3ccccc3nc2n1Cc1cccnc1` [2-azanylidene-N-(1,3-benzodioxol-5-ylmethyl)-5-oxidanylidene-1-(pyridin-3-ylmethyl)dipyrido[1,2-d:3',4'-f]pyrimidine-3-carboxamide], the IC50 is > 80 µM.

As for `CCc1nc(N)nc(N)c1-c1ccc(Cl)c(N=[N+]=[N-])c1` [5-(3-azido-4-chlorophenyl)-6-ethylpyrimidine-2,4-diamine;ethanesulfonic acid], the IC50 is > 80 µM.

Take `Fc1ccccc1-c1nc(NCCCN2CCOCC2)c2ccccc2n1` [2-(2-fluorophenyl)-N-(3-morpholin-4-ylpropyl)quinazolin-4-amine]: the IC50 is > 80 µM.

For `c1ccc(-c2cc(NCCN3CCCCC3)c3ccccc3n2)cc1` [SMR000567889], the IC50 was > 80 µM.

Take `CCc1nc(N)nc(N)c1-c1ccc(Cl)cc1`: the half-inhibitory concentration (IC50) was > 80 µM.

Take `c1ccc(-c2nc(NCCCN3CCOCC3)c3ccccc3n2)cc1` [SMR000071192]: the IC50 was > 80 µM.

On to `COc1ccc(/N=c2\[nH]c(=O)c3cc([N+](=O)[O-])ccc3s2)cc1` [2-(4-methoxyanilino)-6-nitro-1,3-benzothiazin-4-one], for which the IC50 is > 80 µM.

Regarding `Cc1cccc2nc(-c3ccccc3)nc(N[C@@H](CO)c3ccccc3)c12` [(2R)-2-[(5-methyl-2-phenylquinazolin-4-yl)amino]-2-phenylethanol], the concentration for half-maximal inhibition (IC50) was > 80 µM.

With `Cc1ccc(-c2nc(NCc3cccnc3)c3ccccc3n2)cc1` [Pyridin-3-ylmethyl-(2-p-tolyl-quinazolin-4-yl)-amine], the IC50 was > 80 µM.

With `Cc1c(CCC(=O)O)c(=O)oc2c(C)c(OCc3ccccc3Cl)ccc12` [3-[7-[(2-chlorophenyl)methoxy]-4,8-dimethyl-2-oxochromen-3-yl]propanoic acid], the IC50 was > 80 µM.

In the case of `Cc1nc(N)nc(N)c1-c1ccc([N+](=O)[O-])cc1` [6-methyl-5-(4-nitrophenyl)pyrimidine-2,4-diamine], the IC50 was > 80 µM.

On to `Nc1nc(N)c(Cc2ccc(Cl)cc2Cl)c(N)n1` [MLS000691890], for which the IC50 is > 80 µM.

For `CN(C)c1nc(N)nc(/C(C#N)=C/C2CC3C=CC2C3)n1` (configuration not stated), the IC50 is > 80 µM.

Take `COc1ccccc1CNc1nc(NCc2cnc(C)cn2)c2sccc2n1` [2-N-[(2-methoxyphenyl)methyl]-4-N-[(5-methylpyrazin-2-yl)methyl]thieno[3,2-d]pyrimidine-2,4-diamine]: the IC50 was > 80 µM.

On to `CNc1nc(NC)c2c[nH]nc2n1` [4-N,6-N-dimethyl-1H-pyrazolo[3,4-d]pyrimidine-4,6-diamine], for which the IC50 was > 80 µM.

Regarding `Cc1cccc(-c2nc(NCCCN3CCOCC3)c3ccccc3n2)c1`, the IC50 is > 80 µM.

On to `Cc1ccc(-c2nc(NC(=O)CSc3cc(C)c4ccccc4n3)ns2)cc1` [2-[(4-methyl-2-quinolyl)thio]-N-[5-(p-tolyl)-1,2,4-thiadiazol-3-yl]acetamide], for which the IC50 was > 80 µM.

Consider `O=c1cc(-c2cc3ccccc3o2)c2cc(O)ccc2o1` [MLS001167639], for which the IC50 is > 80 µM.

For the molecule `CC(C)Oc1ccc(-c2nc(NCC3CCCO3)c3ccccc3n2)cc1` (configuration not stated) [SMR000433802], the IC50 was > 80 µM.

`CCc1nc(N)nc(N)c1-c1ccc(NCCN)c([N+](=O)[O-])c1`: the IC50 is > 80 µM.

As to `O=C(OCCNc1nc(-c2ccccc2)nc2ccccc12)c1ccncc1` [2-[(2-phenylquinazolin-4-yl)amino]ethyl pyridine-4-carboxylate], the IC50 was > 80 µM.

Consider `Cc1cc(N2CCC(C)CC2)[nH]c2cccc(=O)c1-2` [4-methyl-2-(4-methyl-1-piperidinyl)-1H-quinolin-5-one], for which the IC50 is > 80 µM.

Regarding `COCCNc1nc(NCc2cccc(OC)c2OC)c2sccc2n1` [4-N-[(2,3-dimethoxyphenyl)methyl]-2-N-(2-methoxyethyl)thieno[3,2-d]pyrimidine-2,4-diamine], the IC50 is > 80 µM.
